Measured values as given in patent US10364216B2, “Alkenyl sulfate ester or salt thereof” (Kao Corporation, priority 2013, dated 2019).
Structures can show the parent of a compound that is named as a salt.

Assay: Sweetness adjusting action on sucrose, aspartame, sucralose, glycyrrhizin (simultaneous intake)
Assay type: in vivo, human
Conditions: 5 mM, taken simultaneously with sweetener
Description: To seven examiners, four kinds of 10 mL aqueous sucrose standard solutions (2.5, 5.0, 7.5 and 10.0 wt %) were presented. The examiners kept each of the solutions in their mouth for 5 seconds or so, and then spat the solution out, and were asked to consider the sweetness intensity at that time (0 to 15) to be 2.5, 5, 7.5 and 10, respectively. Next, the examiners kept 10 mL aqueous solution (7.5 wt %) of sucrose in their mouth for 5 seconds or so without knowing the kind and the concentration of the sweetener, and then spat the solution out, and compared the sweetness intensity at that time with that of the aqueous sucrose standard solution, and evaluated the sweetness intensity with a number in a range of 0 to 15. In addition, after 30 seconds, the examiners kept 10 mL pure water in their mouth, and then spat the solution out, and compared the sweetness intensity felt at that time with that of the aqueous sucrose standard solution, and evaluated the sweetness intensity in the same manner. Subsequently, the examiners were presented with 10 mL aqueous sucrose solution containing 5 mM trans-3-octenyl sulfate (7.5 wt %), and kept it in their mouth for 5 seconds or so, and then spat the solution out, and compared the sweetness intensity at that time with the sweetness intensity of the aqueous sucrose standard solution, and evaluated the sweetness intensity in the same manner. In addition, immediately after that, the examiners kept 10 mL pure water in their mouth for 5 seconds or so, and then spat the solution out, and compared the sweetness intensity at that time with that of the aqueous sucrose standard solution, and evaluated the sweetness intensity in the same manner. In addition, after 30 seconds, the examiners kept 10 mL pure water in their mouth, and then spat the solution out, and compared the sweetness intensity felt at that time with that of the aqueous sucrose standard solution, and evaluated the sweetness intensity in the same manner.
To seven examiners, 4 kinds of 10 mL aqueous sucrose standard solutions (2.5, 5.0, 7.5 and 10.0 wt %) were presented. The examiners kept each of the solutions in their mouth for 5 seconds or so, and then spat the solution out, and were asked to consider the sweetness intensity at that time (0 to 15) to be 2.5, 5, 7.5 and 10, respectively. Next, the examiners kept 10 mL aqueous solution of aspartame (494 ppm) in their mouth for 5 seconds or so without knowing the kind and the concentration of the sweetener, and then spat the solution out, and compared the sweetness intensity at that time with that of the aqueous sucrose standard solution, and evaluated the sweetness intensity with a number in a range of 0 to 15. The concentration of aspartame was prepared to have the same sweetness intensity as that of the aqueous sucrose solution (7.5 wt %) in accordance with the reference (Schiffman, S. S. et al. Chemical senses, 1999, 24, 439-447.). In addition, after 30 seconds, the examiners kept 10 mL pure water in their mouth, and then spat the solution out, and compared the sweetness intensity felt at that time with that of the aqueous sucrose standard solution, and evaluated the sweetness intensity in the same manner. Subsequently, the examiners were presented with 10 mL aqueous solution of aspartame containing 5 mM trans-3-octenyl sulfate (494 ppm), and kept it in their mouth for 5 seconds or so, and then spat the solution out, and compared the sweetness intensity at that time with the sweetness intensity of the sucrose standard solution, and evaluated the sweetness intensity in the same manner. In addition, after 30 seconds, the examiners kept 10 mL pure water in their mouth, and then spat the solution out, and compared the sweetness intensity felt at that time with that of the aqueous sucrose standard solution, and evaluated the sweetness intensity in the same manner. […]

Q: Which “Effect on aftertaste of sweetness remaining in the mouth” value does the source give for `CCCC/C=C/CCOS(=O)(=O)O` [trans-3-octenyl sulfate] here?
A: reinforces the aftertaste of sweetness remaining in the mouth

Q: And the “Effect on first taste of sweetness immediately after taking sucrose, aspartame, sucralose or glycyrrhizin” value?
A: inhibits the first taste of sweetness
